Drawing on PubChem BioAssay (NCI), this text covers TGI for 15 molecules.

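Grown in 96-well plates, cells were treated for 48 hours with each compound at five concentrations. Insufficient inhibition: endpoint recorded as highest concentration tested. TGI denotes the concentration required for complete inhibition of growth.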 Bounds are passed on as bounds.

One assay deals with UACC-62 melanoma. The assay is described as follows: NCI anticancer screen, dose series, 48 h.
With `Cc1ccc(C2=Nc3cccc4cccc(c34)N2)cc1`, the TGI is > 100 µM.
Same read-out and setting: with `COC(=O)c1ccccc1CC1Cc2ccc3c(c2C1=O)CCC3` (configuration not stated) the figure was > 100 µM; with `C[n+]1c2ccccc2c(C(=O)Nc2ccc(S(=O)(=O)Nc3ccnn3-c3ccccc3)cc2)c2ccccc21`, > 100 µM.

A further assay concerns OVCAR-8 ovarian. The assay is described as follows: NCI anticancer screen, dose series, 48 h.
With `O=C(/C=C/c1csc(-c2ccccc2)n1)NCc1ccc(C(=O)NCCc2ccccc2)cc1`, the TGI amounted to 63 µM.
Same read-out and setting: for `CC(=O)N1C(c2[nH]c3ccccc3c2-c2ccccc2)CCN1c1ccccc1` (configuration not stated) the value was > 10 µM.
Still for that read-out and setting: for `COc1cccc(-c2c(C#N)c(N)nc3c2CCS(=O)(=O)c2ccc(C)cc2-3)c1` the value was > 100 µM.
On the same count and under the same terms, with `CC(=O)N1C(Nc2ccccn2)CCN1c1ccccc1` (configuration not stated) the figure was > 10 µM; with `CC12CCC(CC1=O)C2(C)CCC(N)=O` (configuration not stated), > 100 µM.
As for `CCNCCNc1c2ccccc2nc2ccccc12`, the TGI worked out at 7.06 µM.
The same measure, in the same setting: with `CCOP(=O)(OCC)C1CC(O)C(=O)N1` (configuration not stated) the figure was > 100 µM; with `COC(=O)C(CC12CC3CC(CC(C3)C1)C2)NC(=O)C(N)CC(=O)O` (configuration not stated), > 100 µM; with `Cc1nc2cccc(F)c2c(=O)n1C1CCCCNC1=O` (configuration not stated), > 10 µM.
Same read-out and setting: with `N=c1oc2cc(O)ccc2cc1C(=O)NCc1ccccc1` the figure was 68.1 µM.
On the same count and under the same terms, for `C=CCOc1ccc(/C(N=Nc2ccc(Cl)cc2)=N/NC(=O)c2ccccc2)cc1OC` the value was > 100 µM; for `COc1ccc(/C=C2\NC(=S)N(CN3CCCCC3)C2=O)cc1`, 50 µM.
Take `Cc1ccc(C2=Nc3cccc4cccc(c34)N2)cc1`: the TGI is > 100 µM.
For the molecule `COC(=O)c1ccccc1CC1Cc2ccc3c(c2C1=O)CCC3` (configuration not stated), the TGI was > 100 µM.
On the same count and under the same terms, with `C[n+]1c2ccccc2c(C(=O)Nc2ccc(S(=O)(=O)Nc3ccnn3-c3ccccc3)cc2)c2ccccc21` the figure was > 100 µM.

Another assay has as its system MALME-3M melanoma. The assay is described as follows: NCI anticancer screen, dose series, 48 h.
For `O=C(/C=C/c1csc(-c2ccccc2)n1)NCc1ccc(C(=O)NCCc2ccccc2)cc1`, the TGI was > 100 µM.
Still for that read-out and setting: for `CC(=O)N1C(c2[nH]c3ccccc3c2-c2ccccc2)CCN1c1ccccc1` (configuration not stated) the value was > 10 µM.
Still for that read-out and setting: for `COc1cccc(-c2c(C#N)c(N)nc3c2CCS(=O)(=O)c2ccc(C)cc2-3)c1` the value was > 100 µM; for `CC(=O)N1C(Nc2ccccn2)CCN1c1ccccc1` (configuration not stated), > 10 µM.
On the same count and under the same terms, with `CC12CCC(CC1=O)C2(C)CCC(N)=O` (configuration not stated) the figure was > 100 µM.
`CCNCCNc1c2ccccc2nc2ccccc12`: the TGI was 4.6 µM.
Turning to `CCOP(=O)(OCC)C1CC(O)C(=O)N1` (configuration not stated), the TGI was > 100 µM.
The same measure, in the same setting: for `N=c1oc2cc(O)ccc2cc1C(=O)NCc1ccccc1` the value was 58.7 µM.
The same measure, in the same setting: for `C=CCOc1ccc(/C(N=Nc2ccc(Cl)cc2)=N/NC(=O)c2ccccc2)cc1OC` the value was > 100 µM; for `COc1ccc(/C=C2\NC(=S)N(CN3CCCCC3)C2=O)cc1`, > 100 µM; for `Cc1ccc(C2=Nc3cccc4cccc(c34)N2)cc1`, > 100 µM.
Still for that read-out and setting: with `COC(=O)c1ccccc1CC1Cc2ccc3c(c2C1=O)CCC3` (configuration not stated) the figure was > 100 µM.
Turning to `C[n+]1c2ccccc2c(C(=O)Nc2ccc(S(=O)(=O)Nc3ccnn3-c3ccccc3)cc2)c2ccccc21`, the TGI was > 100 µM.

A further assay deals with SF-268 CNS. Description: NCI anticancer screen, dose series, 48 h.
With `O=C(/C=C/c1csc(-c2ccccc2)n1)NCc1ccc(C(=O)NCCc2ccccc2)cc1`, the TGI is > 100 µM.
The same measure, in the same setting: with `CC(=O)N1C(c2[nH]c3ccccc3c2-c2ccccc2)CCN1c1ccccc1` (configuration not stated) the figure was > 10 µM.
Same read-out and setting: for `COc1cccc(-c2c(C#N)c(N)nc3c2CCS(=O)(=O)c2ccc(C)cc2-3)c1` the value was > 100 µM; for `CC(=O)N1C(Nc2ccccn2)CCN1c1ccccc1` (configuration not stated), > 10 µM; for `CC12CCC(CC1=O)C2(C)CCC(N)=O` (configuration not stated), > 100 µM.
The molecule `CCNCCNc1c2ccccc2nc2ccccc12` came in with a TGI of 5.52 µM.
On the same count and under the same terms, with `CCOP(=O)(OCC)C1CC(O)C(=O)N1` (configuration not stated) the figure was > 100 µM; with `COC(=O)C(CC12CC3CC(CC(C3)C1)C2)NC(=O)C(N)CC(=O)O` (configuration not stated), > 100 µM; with `Cc1nc2cccc(F)c2c(=O)n1C1CCCCNC1=O` (configuration not stated), > 10 µM.
Still for that read-out and setting: for `N=c1oc2cc(O)ccc2cc1C(=O)NCc1ccccc1` the value was 76.3 µM; for `C=CCOc1ccc(/C(N=Nc2ccc(Cl)cc2)=N/NC(=O)c2ccccc2)cc1OC`, > 100 µM; for `COc1ccc(/C=C2\NC(=S)N(CN3CCCCC3)C2=O)cc1`, 50.4 µM.
Same read-out and setting: with `Cc1ccc(C2=Nc3cccc4cccc(c34)N2)cc1` the figure was > 100 µM; with `COC(=O)c1ccccc1CC1Cc2ccc3c(c2C1=O)CCC3` (configuration not stated), > 100 µM.
`C[n+]1c2ccccc2c(C(=O)Nc2ccc(S(=O)(=O)Nc3ccnn3-c3ccccc3)cc2)c2ccccc21`: the TGI is > 100 µM.

Another assay has as its system NCI/ADR-RES ovarian. The assay is described as follows: NCI anticancer screen, dose series, 48 h.
For `O=C(/C=C/c1csc(-c2ccccc2)n1)NCc1ccc(C(=O)NCCc2ccccc2)cc1`, the TGI is > 100 µM.
Take `CC(=O)N1C(c2[nH]c3ccccc3c2-c2ccccc2)CCN1c1ccccc1` (configuration not stated): the TGI is > 10 µM.
Same read-out and setting: for `COc1cccc(-c2c(C#N)c(N)nc3c2CCS(=O)(=O)c2ccc(C)cc2-3)c1` the value was > 100 µM; for `CC(=O)N1C(Nc2ccccn2)CCN1c1ccccc1` (configuration not stated), > 10 µM; for `CC12CCC(CC1=O)C2(C)CCC(N)=O` (configuration not stated), > 100 µM.
The same measure, in the same setting: with `CCNCCNc1c2ccccc2nc2ccccc12` the figure was 19.5 µM; with `CCOP(=O)(OCC)C1CC(O)C(=O)N1` (configuration not stated), > 100 µM.
Consider `COC(=O)C(CC12CC3CC(CC(C3)C1)C2)NC(=O)C(N)CC(=O)O` (configuration not stated), for which the TGI was > 100 µM.
For the molecule `Cc1nc2cccc(F)c2c(=O)n1C1CCCCNC1=O` (configuration not stated), the TGI is > 10 µM.
`N=c1oc2cc(O)ccc2cc1C(=O)NCc1ccccc1` gave a TGI of 53.5 µM.
On the same count and under the same terms, for `C=CCOc1ccc(/C(N=Nc2ccc(Cl)cc2)=N/NC(=O)c2ccccc2)cc1OC` the value was > 100 µM.
For the molecule `COc1ccc(/C=C2\NC(=S)N(CN3CCCCC3)C2=O)cc1`, the TGI is > 100 µM.
On the same count and under the same terms, with `Cc1ccc(C2=Nc3cccc4cccc(c34)N2)cc1` the figure was > 100 µM.
Same read-out and setting: for `COC(=O)c1ccccc1CC1Cc2ccc3c(c2C1=O)CCC3` (configuration not stated) the value was > 100 µM; for `C[n+]1c2ccccc2c(C(=O)Nc2ccc(S(=O)(=O)Nc3ccnn3-c3ccccc3)cc2)c2ccccc21`, > 100 µM.

The test system of another assay is SF-295 CNS. Description: NCI anticancer screen, dose series, 48 h.
As for `O=C(/C=C/c1csc(-c2ccccc2)n1)NCc1ccc(C(=O)NCCc2ccccc2)cc1`, the TGI stood at 30.9 µM.
Still for that read-out and setting: for `CC(=O)N1C(c2[nH]c3ccccc3c2-c2ccccc2)CCN1c1ccccc1` (configuration not stated) the value was > 10 µM; for `CC(=O)N1C(Nc2ccccn2)CCN1c1ccccc1` (configuration not stated), > 10 µM.
Same read-out and setting: for `CC12CCC(CC1=O)C2(C)CCC(N)=O` (configuration not stated) the value was > 100 µM; for `CCNCCNc1c2ccccc2nc2ccccc12`, 3.3 µM.
The same measure, in the same setting: with `CCOP(=O)(OCC)C1CC(O)C(=O)N1` (configuration not stated) the figure was > 100 µM.
